In patent publication US12172996B2, “Methyl {4,6-diamino-2-[5-fluoro-1-(2-fluorobenzyl)-1H-pyrazolo[3,4-b]pyridin-3-yl]pyrimidin-5-yl}carbamate active compound product having improved properties, production and formulation thereof” (Adverio Pharma GmbH, priority 2018, dated 2024):

Assays:
[1] = Determination of particle size distribution (Sympatec Helos, wet dispersion unit); type: physicochemical; conditions: 5 min ultrasound; for X10%: diameter below which 10% of the particles lie; for X50%: diameter below which 50% of the particles lie; for X90%: diameter below which 90% of the particles lie
Procedure: Determination of particle size distribution. Determination of particle size distribution is performed using a Sympatec Helos instrument fitted with a wet dispersion unit. To produce the dispersion medium 10-25 mg of the active compound product of the compound of formula (I) (micronized or non-micronized) are predispersed with 10 ml of water/1 drop of Tween 20 in a small vessel. The dispersion is stirred but not shaken to avoid foam formation. The dispersed material is subsequently added to the deionized water (approx. 0.51) in the wet dispersion unit, treated with ultrasound for 5 minutes and measured (10 seconds). The sound exposure time is 5 minutes, a 50 mm aperture is employed (R2, or if measurement range exceeded, R3), the optical density of the suspension is 10-25%, the stirring/pumping speed is set to 50% (40-60%) and evaluation is carried out after 5 minutes of ultrasound.
The three columns X10%, X50% and X90% indicate the diameter below which 10%, 50% and 90% respectively of the particles of the analysed active compound product lie.

[2] = ATR IR of the modification after micronization; type: physicochemical
Text: 16.1 kg of methyl {4,6-diamino-2-[5-fluoro-1-(2-fluorobenzyl)-1H-pyrazolo[3,4-b]pyridin-3-yl]pyrimidin-5-yl}carbamate of formula (I) in the crystalline form of modification I, produced according to example 13, method E of WO 2013/076168, were micronized to afford 15.2 kg. The yield was 94.4%. […] The ATR IR diagram corresponds to the IR spectrum of the compound of formula (I) in modification I according to FIG. 1 of WO 2013/076168.
39.0 kg of methyl {4,6-diamino-2-[5-fluoro-1-(2-fluorobenzyl)-1H-pyrazolo[3,4-b]pyridin-3-yl]pyrimidin-5-yl}carbamate of formula (I) in the crystalline form of modification I, produced by the process according to the invention of example 4, were micronized to afford 36.9 kg. The yield was 94.6%.
The ATR IR diagram corresponds to the IR spectrum of the compound of formula (I) in modification I according to FIG. 1 of WO 2013/076168.

Q: Which X10% ([1]; listed as 2-3) does the source give for `COC(=O)Nc1c(N)nc(-c2nn(Cc3ccccc3F)c3ncc(F)cc23)nc1N` [Batch 2-3] here?
A: The X10% was 1.0 μm.

Q: What about the X50% ([1]; listed as 2-3) of the same molecule?
A: The X50% was 4.3 μm.

Q: And the X90% ([1]; listed as 2-3)?
A: The X90% was 27.4 μm.

Q: For `COC(=O)Nc1c(N)nc(-c2nn(Cc3ccccc3F)c3ncc(F)cc23)nc1N` [Batch 2-5], which X10% ([1]; listed as 2-5) is on record?
A: Its X10% is 1.4 μm.

Q: What about the X50% ([1]; listed as 2-5) of the same molecule?
A: Its X50% is 18.7 μm.

Q: What about the X90% ([1]; listed as 2-5) of the same molecule?
A: The X90% was 50.6 μm.

Q: Which Modification after micronization ([2]; produced according to example 13, method E of WO 2013/076168, 16.1 kg micronized) does the source give for `COC(=O)Nc1c(N)nc(-c2nn(Cc3ccccc3F)c3ncc(F)cc23)nc1N` [compound of formula (I), Methyl {4,6-diamino-2-[5-fluoro-1-(2-fluorobenzyl)-1H-pyrazolo[3,4-b]pyridin-3-yl]pyrimidin-5-yl}carbamate] here?
A: The Modification after micronization was “remained in modification I even after micronization”.

Q: What about the Modification after micronization ([2]; produced by the process according to the invention of example 4, 39.0 kg micronized) of the same molecule?
A: Its Modification after micronization is “remained in modification I even after micronization”.

Q: What does the source list for `COC(=O)Nc1c(N)nc(-c2nn(Cc3ccccc3F)c3ncc(F)cc23)nc1N` [Batch 2-2]?
A: X10% ([1]; listed as 2-2): 0.9 μm; X50% ([1]; listed as 2-2): 4.2 μm; X90% ([1]; listed as 2-2): 31.9 μm

Q: With `COC(=O)Nc1c(N)nc(-c2nn(Cc3ccccc3F)c3ncc(F)cc23)nc1N` [Batch 2-8] as the molecule, how does the X10% ([1]; listed as 2-8) read?
A: Its X10% is 0.6 μm.

Q: And the X50% ([1]; listed as 2-8)?
A: Its X50% is 2.6 μm.

Q: What about the X90% ([1]; listed as 2-8) of the same molecule?
A: Its X90% is 13.6 μm.

Q: Which results are given for `COC(=O)Nc1c(N)nc(-c2nn(Cc3ccccc3F)c3ncc(F)cc23)nc1N` [Batch 2-6]?
A: X10% ([1]; listed as 2-6): 1.0 μm; X50% ([1]; listed as 2-6): 9.0 μm; X90% ([1]; listed as 2-6): 34.4 μm

Q: Which X10% ([1]; listed as 2-4) does the source give for `COC(=O)Nc1c(N)nc(-c2nn(Cc3ccccc3F)c3ncc(F)cc23)nc1N` [Batch 2-4] here?
A: The X10% was 0.5 μm.

Q: What about the X50% ([1]; listed as 2-4) of the same molecule?
A: Its X50% is 1.8 μm.

Q: And the X90% ([1]; listed as 2-4)?
A: The X90% was 9.5 μm.

Q: For `COC(=O)Nc1c(N)nc(-c2nn(Cc3ccccc3F)c3ncc(F)cc23)nc1N` [Batch 2-7], which X10% ([1]; listed as 2-7) is on record?
A: Its X10% is 0.6 μm.

Q: And the X50% ([1]; listed as 2-7)?
A: The X50% was 4.1 μm.

Q: And the X90% ([1]; listed as 2-7)?
A: The X90% was 23.6 μm.

Q: With `COC(=O)Nc1c(N)nc(-c2nn(Cc3ccccc3F)c3ncc(F)cc23)nc1N` [Batch 2-1] as the molecule, how does the X10% ([1]; listed as 2-1) read?
A: Its X10% is 1.0 μm.

Q: And the X50% ([1]; listed as 2-1)?
A: The X50% was 11.1 μm.

Q: And the X90% ([1]; listed as 2-1)?
A: Its X90% is 43.0 μm.
